{"source": "patent US6500865B1", "about": "“Sulfonamide derivatives” (Eli Lilly and Company, priority 1998, dated 2002)", "biological_target": "T1, human GluR4B receptor (Homo sapiens, UniProt P48058)", "T1 construct": "expressed in transfected cells", "T1 sequence (P48058 21-902)": "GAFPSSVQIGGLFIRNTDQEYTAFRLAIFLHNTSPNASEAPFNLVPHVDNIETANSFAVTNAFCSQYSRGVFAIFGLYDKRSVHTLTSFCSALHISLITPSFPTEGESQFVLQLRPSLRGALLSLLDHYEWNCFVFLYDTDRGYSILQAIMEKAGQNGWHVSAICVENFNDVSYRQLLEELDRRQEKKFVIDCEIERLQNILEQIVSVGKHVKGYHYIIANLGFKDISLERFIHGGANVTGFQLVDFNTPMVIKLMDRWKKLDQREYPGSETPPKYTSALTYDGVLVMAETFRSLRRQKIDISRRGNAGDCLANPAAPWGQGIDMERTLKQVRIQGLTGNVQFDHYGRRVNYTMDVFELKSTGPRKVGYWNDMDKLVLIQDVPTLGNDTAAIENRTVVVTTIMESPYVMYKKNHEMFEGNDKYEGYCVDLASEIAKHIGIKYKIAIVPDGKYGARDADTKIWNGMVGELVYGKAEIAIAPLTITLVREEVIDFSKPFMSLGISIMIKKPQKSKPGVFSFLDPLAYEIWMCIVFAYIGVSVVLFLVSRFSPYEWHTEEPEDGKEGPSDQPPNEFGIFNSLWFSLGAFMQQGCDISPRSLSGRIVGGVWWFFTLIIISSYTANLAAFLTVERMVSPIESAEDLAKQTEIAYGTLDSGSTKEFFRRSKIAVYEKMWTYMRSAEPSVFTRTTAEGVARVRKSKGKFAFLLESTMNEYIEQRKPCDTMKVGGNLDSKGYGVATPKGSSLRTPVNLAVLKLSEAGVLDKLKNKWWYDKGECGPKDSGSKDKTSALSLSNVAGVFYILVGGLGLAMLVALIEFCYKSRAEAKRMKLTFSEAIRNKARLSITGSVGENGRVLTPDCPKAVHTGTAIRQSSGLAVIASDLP", "experiment": "potentiation of agonist-induced excitability of human GluR4B receptor expressed in HEK 293 cells", "format": "cell-based", "settings": "human GluR4B expressed in HEK 293 cells; qualitative statement", "text": "The ability of compounds of formula I to potentiate glutamate receptor-mediated response may be determined using fluorescent calcium indicator dyes (Molecular Probes, Eugene, Oreg., Fluo-3) and by measuring glutamate-evoked efflux of calcium into GluR4 transfected HEK293 cells, as described in more detail below.\nIn one test, 96 well plates containing confluent monolayers of HEK cells stably expressing human GluR4B (obtained as described in European Patent Application Publication Number EP-A1-583917) are prepared. The tissue culture medium in the wells is then discarded, and the wells are each washed once with 200 μl of buffer (glucose, 10 mM, sodium chloride, 138 mM, magnesium chloride, 1 mM, potassium chloride, 5 mM, calcium chloride, 5 mM, N-[2-hydroxyethyl]-piperazine-N-[2-ethanesulfonic acid], 10 mM, to pH 7.1 to 7.3). […]\nEach test is then performed as follows. […] A second fluorescent reading is taken after 5 minutes incubation. 15 μl of 400 μM glutamate solution is then added to each well (final glutamate concentration 100 μM), and a third reading is taken. The activities of test compounds and cyclothiazide solutions are determined by subtracting the second from the third reading (fluorescence due to addition of glutamate in the presence or absence of test compound or cyclothiazide) and are expressed relative to enhance fluorescence produced by 100 μM cyclothiazide."}
{"smiles": "NS(=O)(=O)c1cc2c(cc1Cl)NC(C1CC3C=CC1C3)NS2(=O)=O", "note": "(stereo not shown) [cyclothiazide]", "values": [{"measurement": "potentiation of agonist-induced excitability of human GluR4B receptor", "result": "potentiate"}]}
